According to ChEMBL document CHEMBL3400030, “Synthesis and biological evaluation of nonionic substrate mimics of UDP-Galp as candidate inhibitors of UDP galactopyranose mutase (UGM)” (Bioorg Med Chem Lett, 2015):

Experiments:
[1] = tested on: Mycobacterium tuberculosis; assay: Inhibition of Mycobacterium tuberculosis UGM assessed as conversion of UDP-Galf into UDP-Galp at 500 uM by HPLC method; parameters: scale not given: the % may be the effect or the level left
[2] = tested on: Mycobacterium tuberculosis; assay: Inhibition of Mycobacterium tuberculosis UGM assessed as inhibition of conversion of UDP-Galf into UDP-Galp at 500 uM by HPLC method

Question: Which results are given for `O=c1ccn(C[C@@H](O)[C@@H](O)[C@H](O)[C@H](CO)O[C@H]2O[C@H](CO)[C@H](O)[C@H](O)[C@H]2O)c(=O)[nH]1`?
Answer: Activity [1]: 47%; inhibition [2]: 30%

Question: Which Activity [1] does the source give for `O=c1ccn(C[C@@H](O)[C@@H](O)[C@H](O)[C@H](CO)O[C@@H]2O[C@H](CO)[C@H](O)[C@H](O)[C@H]2O)c(=O)[nH]1` here?
Answer: 39%

Question: What about the inhibition [2] of the same molecule?
Answer: 28%
